For assay [1], the target named is T1, Free fatty acid receptor 4 (Homo sapiens, UniProt Q5NUL3).
T1 sequence (Q5NUL3 whole entry): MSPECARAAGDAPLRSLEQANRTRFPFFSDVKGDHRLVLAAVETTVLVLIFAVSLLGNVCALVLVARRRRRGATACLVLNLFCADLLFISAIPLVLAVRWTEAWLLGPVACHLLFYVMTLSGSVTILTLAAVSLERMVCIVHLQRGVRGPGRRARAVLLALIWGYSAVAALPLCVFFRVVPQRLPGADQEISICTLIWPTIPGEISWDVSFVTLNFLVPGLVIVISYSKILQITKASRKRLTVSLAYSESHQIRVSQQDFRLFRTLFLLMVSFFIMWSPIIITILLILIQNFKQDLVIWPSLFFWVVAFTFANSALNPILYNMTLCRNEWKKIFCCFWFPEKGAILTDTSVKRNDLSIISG
The assay can be described thus: Agonist activity at human GPR120 expressed in HEK293 cells by beta-arrestin assay. The class given is cell-based.

Assay [2] deals with T1, Free fatty acid receptor 4. The assay can be described thus: Agonist activity at human GPR120 expressed in HEK293 cells assessed as calcium accumulation. The class given is cell-based.
Assay [3] deals with T1, Free fatty acid receptor 4. The assay can be described thus: Agonist activity at human GPR120 expressed in CHO-K1 cells by beta-arrestin assay. The class given is cell-based.
Assay [4] relates to DU-145. The assay can be described thus: Antiproliferative activity against LPA-induced human DU-145 cells. The class given is functional, cell-based.
Assay [5] is described as follows: Agonist activity at FFA receptor (unknown origin). The arrangement: species or system Homo sapiens.

On to `OCCCc1c(F)cc(OCc2c(-c3ccc(Cl)cc3)csc2C(F)(F)F)cc1F`, for which the EC50 in assay [1] came to 125 nM; in assay [2] it was 165 nM. In turn, `C#Cc1cc(Oc2cccnc2)cc(N2Cc3ccccc3S2(=O)=O)c1` yielded an EC50 in assay [3] of 5.2 nM. Consider `CC/C=C\C/C=C\C/C=C\C/C=C\C/C=C\C/C=C\CCC(=O)O` [DOCONEXENT], for which, in assay [4], half-maximal inhibition (IC50) required 73 nM.

`CC(C)=CCC/C(C)=C/CC/C(C)=C/Cc1c(O)cc(C)c(C(=O)O)c1O` [GRIFOLIC ACID] yielded an IC50 in assay [4] of 5700 nM.

Molecule `CCCCC/C=C\C/C=C\CCCCCCCC(=O)O` [LINOLEIC ACID] displayed a pEC50 in assay [5] of 5.16.

The EC50 is the concentration that produces a half-maximal response. Broadly, the IC50 is the concentration that inhibits the measured activity by half. Higher therefore signals weaker potency. What is called pEC50 is −log10 of the EC50, conventionally taken in molar units. A lower pEC50 goes with a high EC50.

(Values after ChEMBL document CHEMBL5226303, “GPR120/FFAR4 Pharmacology: Focus on Agonists in Type 2 Diabetes Mellitus Drug Discovery” (J Med Chem, 2021).)
